Results taken from patent publication US20050249831A1, “Herbal extract comprising a mixture of saponins obtained from sapindus trifoliatus for anticonvulsant activity” (priority 2002, published 2005).

How the values were obtained:
[1] = test system: PTZ induced seizures in rats; format: in vivo; conditions: 4 mg/kg, i.p., 2 ml/kg, standard control
[2] = test system: MES induced seizures in rats; assay: Maximal Electroshock Seizure (MES) model; format: in vivo; conditions: Rattus norvegicus, ip, read-out: ED50, protection to hind limb tonic extension due to electroshock
Method: In order to evaluate the efficacy of the extract of Sapindus trifoliatus, for its prophylactic therapeutic potential in migraine, its role as an anticonvulsant was evaluated in an in vivo animal model. […]
Male Wistar rats (150-200 g) were used in the study. […] Mortality if any was recorded. […]
Values of incidence and mortality were expressed as ratios and analysed by Fisher's test. The latency for onset and duration of hind limb extension of maximal electroshock induced convulsions were averaged, expressed as mean±standard deviation. Mean values were analysed by one way ANOVA followed by Dunnett ‘t’ test for multiple comparison or Students ‘t’ test for comparing two means. […] ED50 values were calculated by probit analysis [Finney, D. J., Probit Analysis, Cambridge University Press, London, 1947].

Structure (SMILES) | Protection against PTZ induced seizures [1] | ED50 [2] [mg/kg]
CN1C(=O)CN=C(c2ccccc2)c2cc(Cl)ccc21 [diazepam, Diazepam] | significantly protected | 
CCCC(CCC)C(=O)[O-].[Na+] [Sodium valproate] |  | 67.7
